Reference: paper PMC6691884 (Journal of Enzyme Inhibition and Medicinal Chemistry, 2019)

Each compound was assayed against T1, FtuCA (Francisella tularensis, UniProt Q5NH77). Conditions: activation constant (not association constant); activator; CO2 substrate; 10 mM Tris pH 8.4, 0.1 M Na2SO4, 25 °C; 15 min pre-incubation.
T1 construct: gene cynT
T1 sequence (Q5NH77 1-228): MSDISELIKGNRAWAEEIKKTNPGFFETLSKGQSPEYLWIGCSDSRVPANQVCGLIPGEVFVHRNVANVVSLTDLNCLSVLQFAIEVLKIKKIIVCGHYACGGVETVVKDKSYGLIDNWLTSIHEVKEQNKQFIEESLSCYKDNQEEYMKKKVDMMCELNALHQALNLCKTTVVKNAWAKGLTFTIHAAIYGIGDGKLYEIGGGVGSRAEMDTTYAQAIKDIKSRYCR

Row | Compound | KA (μM)^a / FtuCA^c [µM]
1 | N[C@@H](Cc1cnc[nH]1)C(=O)O [compound 1, L-His] | 40.7
2 | N[C@H](Cc1ccc(O)c(O)c1)C(=O)O [compound 6, D-DOPA] | 44.8
3 | N[C@@H](Cc1c[nH]c2ccccc12)C(=O)O [compound 7, L-Trp] | 34.1
4 | N[C@H](Cc1c[nH]c2ccccc12)C(=O)O [compound 8, D-Trp] | 30.5
5 | NCc1ccccn1 [compound 15, 2-Pyridyl-methylamine] | 46.3
6 | NCCN1CCNCC1 [compound 17, 1-(2-Aminoethyl)-piperazine] | 51.8
7 | N[C@@H](CCC(=O)O)C(=O)O [compound 22, L-Glu] | 9.13
8 | NC(=O)CC[C@H](N)C(=O)O [compound 24, L-Gln] | 45.7

Each compound was assayed against T2, BsuCA 1 (Brucella suis, UniProt A0A0H3GDA4). Conditions: activation constant (not association constant); activator; CO2 substrate; 10 mM Tris pH 8.4, 0.1 M Na2SO4, 25 °C; 15 min pre-incubation.
T2 construct: gene BS1330_I1823
T2 sequence (A0A0H3GDA4 1-213): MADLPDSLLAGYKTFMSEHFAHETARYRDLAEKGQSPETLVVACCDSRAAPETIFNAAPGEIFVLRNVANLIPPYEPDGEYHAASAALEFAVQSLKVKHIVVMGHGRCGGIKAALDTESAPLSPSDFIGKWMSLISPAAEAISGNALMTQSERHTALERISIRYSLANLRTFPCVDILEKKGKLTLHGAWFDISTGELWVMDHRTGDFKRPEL

Row | Compound | KA (μM)^a / BsuCA1 ^c [µM]
9 | N[C@@H](Cc1cnc[nH]1)C(=O)O [compound 1, L-His] | 1.76
10 | N[C@H](Cc1ccccc1)C(=O)O [compound 4, D-Phe] | 1.21
11 | N[C@@H](Cc1ccc(O)c(O)c1)C(=O)O [compound 5, L-DOPA] | 2.07
12 | N[C@@H](Cc1c[nH]c2ccccc12)C(=O)O [compound 7, L-Trp] | 1.25
13 | N[C@@H](Cc1ccc(O)cc1)C(=O)O [compound 9, L-Tyr] | 1.38
14 | N[C@H](Cc1ccc(O)cc1)C(=O)O [compound 10, D-Tyr] | 0.95
15 | Nc1ccc(C[C@H](N)C(=O)O)cc1 [compound 11, 4-H2N-L-Phe] | 1.18
16 | NCCc1ccc(O)c(O)c1 [compound 13, Dopamine] | 1.54
17 | NCc1ccccn1 [compound 15, 2-Pyridyl-methylamine] | 1.62
18 | CNC[C@H](O)c1ccc(O)c(O)c1 [compound 19, L-Adrenaline] | 0.70
19 | N[C@H](CCC(=O)O)C(=O)O [compound 23, D-Glu] | 1.39
